Assay results as given in patent US12466831B2, “Substituted amino triazolopyrimidine and amino triazolopyrazine adenosine receptor antagonists, pharmaceutical compositions and their use” (Merck Sharp & Dohme LLC, priority 2018, dated 2025).

Columns and labels:
[1] = molecular target: T1, human A2b adenosine receptor (Homo sapiens, UniProt P29275); assay: A2b binding affinity, radioligand filtration binding assay; settings: tritiated proprietary A2b antagonist, HEK293 membranes expressing human A2b
T1 construct: purchased Perkin Elmer ES-013-C; host or cells: HEK293 cells recombinantly expressing the receptor; membranes made from them
T1 sequence (P29275 1-332): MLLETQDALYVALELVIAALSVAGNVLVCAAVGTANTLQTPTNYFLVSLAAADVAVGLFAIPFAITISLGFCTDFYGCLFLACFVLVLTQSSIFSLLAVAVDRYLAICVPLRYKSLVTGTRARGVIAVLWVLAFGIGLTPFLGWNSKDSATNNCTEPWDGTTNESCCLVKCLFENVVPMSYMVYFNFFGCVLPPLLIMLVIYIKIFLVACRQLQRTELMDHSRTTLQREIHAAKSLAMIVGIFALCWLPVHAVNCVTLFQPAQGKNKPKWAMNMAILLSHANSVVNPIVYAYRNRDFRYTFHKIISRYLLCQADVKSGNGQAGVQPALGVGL
From the text: (§1) Method (A) describes the procedure used to measure A2a binding affinity using radioligand binding. Method (B) describes the procedure used to measure A2a binding affinity using SPA technology. The method used to measure A2b binding affinity is also described below. The method used to determine the A2a IC50 value reported for each compound in the table is indicated next to the reported value. The A2b IC50 value measured using the A2b binding affinity assay is shown in the table next to the compound under the corresponding A2a value.
Measurement of A2b Binding Affinity
The reported affinity of the compounds of the invention for the human A2b adenosine receptor was determined experimentally using a radioligand filtration binding assay. This assay measures the amount of binding of a tritiated proprietary A2b receptor antagonist, in the presence and absence of a compound of the invention, to membranes made from HEK293 cells recombinantly expressing the human A2b adenosine receptor (Perkin Elmer, Cat. No. ES-013-C).
148 μL (135 μg/mL) membranes and 2 μL test compounds were transferred to individual wells of a 96-well polypropylene assay plate and incubated for 15 to 30 minutes at room temperature with agitation. Tritiated radioligand was diluted to a concentration of 14 nM in assay buffer (phosphate buffered saline without Magnesium and Calcium, pH 7.4; GE Healthcare Life Sciences, Cat. No. SH30256.01) and then 50 μL of the solution were transferred to each well of the assay plate. To define total and non-specific binding, wells containing 1% DMSO and 20 μM N-ethylcarboxamidoadenosine (Tocris Bioscience, Cat. No. 1691) respectively, were also included. The wells of the assay plate were incubated at room temperature for 60 minutes with agitation, then filtered using a FilterMate Harvester® (Perkin Elmer) or similar equipment through a UniFilter-96® PEI coated plate (Perkin Elmer Cat. No. 6005274 or 6005277). Filtering was achieved by aspirating the contents of the assay plate for 5 seconds, then washing and aspirating the contents three times with ice-cooled wash buffer (assay buffer supplemented with 0.0025% Brij58) and allowing the vacuum manifold to dry the plate for 30 seconds. The filter plate was incubated for at least 1 hour at 55° C. and allowed to dry. The bottom of the filter plate was then sealed with backing tape. 40 μL Ultima Gold™ (Perkin Elmer, Cat. No. 6013329) was added to each well of the filter plate and the top of the plate was sealed with TopSeal-A PLUS® clear plate seal (Perkin Elmer, Cat. No. 6050185). The plates were then incubated for at least 20 minutes, and then the amount of radioactivity remaining in each well was determined using a TopCount® (Perkin Elmer) scintillation counter. After normalization to total and non-specific binding, the percent effect at each compound concentration was calculated. The plot of percent effect versus the log of compound concentration was analyzed electronically using a 4-parameter logistic fit based on the Levenberg-Marquardt algorithm to generate IC50 values.

[2] = molecular target: T2, human A2a adenosine receptor (Homo sapiens, UniProt P29274); assay: A2a binding affinity using radioligand binding, Method (A); settings: Method (A): [3H]SCH58261 filtration binding, membranes expressing human A2a
T2 construct: purchased Perkin Elmer RBHA2aM400UA; host or cells: HEK293 or CHO cells (recombinant expression)
T2 sequence (P29274 whole entry): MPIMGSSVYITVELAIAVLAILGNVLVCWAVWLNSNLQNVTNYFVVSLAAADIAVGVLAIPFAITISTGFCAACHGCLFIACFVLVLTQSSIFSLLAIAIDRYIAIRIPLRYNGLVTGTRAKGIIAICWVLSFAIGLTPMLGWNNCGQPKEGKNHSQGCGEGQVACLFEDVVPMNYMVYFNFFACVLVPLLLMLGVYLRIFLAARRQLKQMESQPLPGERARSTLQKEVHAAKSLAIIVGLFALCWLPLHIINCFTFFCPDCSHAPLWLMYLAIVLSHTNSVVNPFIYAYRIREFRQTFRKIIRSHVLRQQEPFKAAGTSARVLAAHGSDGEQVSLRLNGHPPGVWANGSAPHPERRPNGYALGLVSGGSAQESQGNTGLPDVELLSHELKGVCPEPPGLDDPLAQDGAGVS
From the text: as §1
The A2a receptor affinity binding assay measured the amount of binding of a tritiated ligand with high affinity for the A2a adenosine receptor to membranes made from HEK293 or CHO cells recombinantly expressing the human A2a adenosine receptor, in the presence of varying concentrations of a compound of the invention. The data were generated using either filtration binding or a homogenous scintillation proximity assay (SPA).
Method (A): Measurement of A2a Binding Affinity Using Radioligand Binding
148 μL (5 μg/mL) membranes (Perkin Elmer, Cat. No. RBHA2aM400UA) and 2 μL compounds of the invention to be tested (test compound) were transferred to individual wells of a 96-well polypropylene assay plate and incubated for 15 to 30 minutes at room temperature. [^3H] SCH58261 ((7-(2-phenylethyl)-5-amino-2-(2-furyl)-pyrazolo-[4,3-e]-1,2,4-triazolo[1,5-c]pyrimidine)) was diluted in assay buffer (50 mM Tris pH 7.4, 10 mM MgCl2, 0.005% Tween20) to a concentration of 4 nM and 50 μL transferred to each well of the assay plate. To define total and non-specific binding, wells containing 1% DMSO and 1 μM ZM241385 (Tocris Bioscience, Cat. No. 1036) respectively, were also included. The assay plate was incubated at room temperature for 60 minutes with agitation. Using a FilterMate Harvester® (Perkin Elmer), the contents of the assay plate were filtered through a UniFilter-96® PEI coated plate (Perkin Elmer Cat. No. 6005274 or 6005277). Filtering was achieved by aspirating the contents of the assay plate for 5 seconds, then washing and aspirating the contents three times with ice-cooled wash buffer (50 mM Tris-HCl pH 7.4, 150 mM NaCl) and allowing the vacuum manifold to dry the plate for 30 seconds. The filter plate was incubated for at least 1 hour at 55° C. and allowed to dry. The bottom of the filter plate was sealed with backing tape. 40 μL Ultima Gold™ (Perkin Elmer, Cat. No. 6013329) was added to each well of the filter plate and the top of the plate was sealed with TopSeal-A PLUS® clear plate seal (Perkin Elmer, Cat. No. 6050185). The plate was incubated for at least 20 minutes, and then the amount of radioactivity remaining in each well was determined using a TopCount® (Perkin Elmer) scintillation counter. After normalization to total and non-specific binding, the percent effect at each compound concentration was calculated. The plot of percent effect versus the log of compound concentration was analyzed electronically using a 4-parameter logistic fit based on the Levenberg-Marquardt algorithm to generate IC50 values.

Compound	IC50 [1] [nM]	IC50 [2] [nM]
Cc1c(-c2ncco2)nc(N)c2nc([C@@H]3CCCN(c4cnn(C)c4)C3)nn12 (single isomer, unassigned) [Example 2.5-1]	770	14.8
Cc1c(-c2ncco2)nc(N)c2nc(C3CCCC(C)(O)C3)nn12 (single isomer, unassigned) [Example 8.4, (1R,3S and 1S,3R) or (1R,3R and 1S,3S)-3-(8-amino-5-methyl-6-(oxazol-2-yl)-[1,2,4]triazolo[1,5-a]pyrazin-2-yl)-1-methylcyclohexan-1-ol]	411	6.7
Cc1c(-c2ncco2)nc(N)n2nc(C3CCCC(C)(O)C3)nc12 (single isomer, unassigned) [Example 8.3-2, (1-R or S,3-R or S)-3-(5-amino-8-methyl-7-(oxazol-2-yl)-[1,2,4]triazolo[1,5-c]pyrimidin-2-yl)-1-methylcyclohexan-1-ol]	64.5	0.9
Cc1c(-c2cccc(F)c2)nc(N)c2nc(C3CCCC(C)(O)C3)nn12 (single isomer, unassigned) [Example 8.11-1, (1R,3S or 1S,3R or 1R,3R or 1S,3S)-1-3-(8-amino-6-(3-fluorophenyl)-5-methyl-[1,2,4]triazolo[1,5-a]pyrazin-2-yl)-1-methylcyclohexan-1-ol]	≥ 10000	132
Cc1c(-c2ncco2)nc(N)n2nc([C@H]3CC[C@@H](C)N(c4cnn(CC(C)(C)O)c4)C3)nc12 [Example 2.13, 1-(4-((2R,5S)-5-(5-amino-8-methyl-7-(oxazol-2-yl)-[1,2,4]triazolo[1,5-c]pyrimidin-2-yl)-2-methylpiperidin-1-yl)-1H-pyrazol-1-yl)-2-methylpropan-2-ol]	1310	47.9
Cc1c(-c2cccc(F)c2)nc(N)c2nc(C3CCCC(C)(O)C3)nn12 (single isomer, unassigned) [Example 8.11-2, (1R,3S or 1S,3R or 1R,3R or 1S,3S)-1-3-(8-amino-6-(3-fluorophenyl)-5-methyl-[1,2,4]triazolo[1,5-a]pyrazin-2-yl)-1-methylcyclohexan-1-ol]	238	13.5
CCn1cc(N2C[C@@H](c3nc4c(C)c(-c5cccc(F)c5)nc(N)n4n3)CC[C@H]2C)cn1 [Example 2.17, 2-((3S,6R)-1-(1-ethyl-1H-pyrazol-4-yl)-6-methylpiperidin-3-yl)-7-(3-fluorophenyl)-8-methyl-[1,2,4]triazolo[1,5-c]pyrimidin-5-amine]	2150	47.6
CCn1cc(N2CCC[C@@H](c3nc4c(C)c(-c5ncco5)nc(N)n4n3)C2)cn1 [Example 3.3, (R)-2-(1-(1-ethyl-1H-pyrazol-4-yl)piperidin-3-yl)-8-methyl-7-(oxazol-2-yl)-[1,2,4]triazolo[1,5-c]pyrimidin-5-amine]	155	0.9
Cc1c(-c2ncco2)nc(N)n2nc([C@H]3C[C@@H](O)C3)nc12 [Example 2.8, (1s,3s)-3-(5-amino-8-methyl-7-(oxazol-2-yl)-[1,2,4]triazolo[1,5-c]pyrimidin-2-yl)cyclobutan-1-ol]	250	72.9
Cc1c(-c2ncco2)nc(N)n2nc([C@H]3C[C@H](c4ccc(C(C)(C)O)cn4)C3)nc12 [Example 2.19, 2-(6-((1,3-trans)-3-(5-amino-8-methyl-7-(oxazol-2-yl)-[1,2,4]triazolo[1,5-c]pyrimidin-2-yl)cyclobutyl)pyridin-3-yl)propan-2-ol]	–	5.2
Nc1nc(-c2ccccc2)cc2nc([C@@H]3CC(F)(F)CN3)nn12 [Example 2.1, (S)-2-(4,4-difluoropyrrolidin-2-yl)-7-phenyl-[1,2,4]triazolo[1,5-c]pyrimidin-5-amine]	–	12
Cc1c(-c2ncco2)nc(N)n2nc([C@H]3C[C@@H](c4ccc(C(C)(C)N)cn4)C3)nc12 [Example 2.21, 2-((1,3-cis)-3-(5-(2-aminopropan-2-yl)pyridin-2-yl)cyclobutyl)-8-methyl-7-(oxazol-2-yl)-[1,2,4]triazolo[1,5-c]pyrimidin-5-amine]	–	26.3
Cc1c(-c2ncco2)nc(N)n2nc([C@H]3C[C@@H](c4ccc(C(C)(C)O)cn4)C3)nc12 [Example 2.18, 2-(6-((1,3-cis)-3-(5-amino-8-methyl-7-(oxazol-2-yl)-[1,2,4]triazolo[1,5-c]pyrimidin-2-yl)cyclobutyl)pyridin-3-yl)propan-2-ol]	–	3.7
Cc1c(-c2ncco2)nc(N)n2nc([C@H]3C[C@H](c4ccc(C(C)(C)N)nc4)C3)nc12 [Example 10.6, 2-((1,3-trans)-3-(6-(2-aminopropan-2-yl)pyridin-3-yl)cyclobutyl)-8-methyl-7-(oxazol-2-yl)-[1,2,4]triazolo[1,5-c]pyrimidin-5-amine]	–	15.7
Nc1nc(-c2ccccc2)cc2nc([C@@H]3CC(F)(F)CN3C(=O)C3CC3)nn12 [Example 4.3, (S)-(2-(5-amino-7-phenyl-[1,2,4]triazolo[1,5-c]pyrimidin-2-yl)-4,4-difluoropyrrolidin-1-yl)(cyclopropyl)methanone]	–	14.9
Nc1nc(-c2ncco2)cc2nc([C@@H]3CC(F)(F)CN3)nn12 [Example 2.2, (S)-2-(4,4-difluoropyrrolidin-2-yl)-7-(oxazol-2-yl)-[1,2,4]triazolo[1,5-c]pyrimidin-5-amine]	–	143
Cc1c(-c2ncco2)nc(N)n2nc([C@H]3C[C@H](c4ccc(C(C)(C)N)cn4)C3)nc12 [Example 2.20, 2-((1,3-trans)-3-(5-(2-aminopropan-2-yl)pyridin-2-yl)cyclobutyl)-8-methyl-7-(oxazol-2-yl)[l,2,4]triazolo[1,5-c]pyrimidin-5-amine]	–	9.9
